Source: patent US9493466B2, “Treatment of cancer with TOR kinase inhibitors” (Signal Pharmaceuticals, LLC, priority 2011, dated 2016)

Experiments:
Format in all cases: cell-based
[1] = tested on: JVM-13; assay: Growth inhibition assay for NHL lines; details: JVM-13, NHL MCL, 96 hours, n ≧ 3
Procedure: (§1) Growth Inhibition Assay for HCC and NHL Lines. The seeding density for each cell line was optimized to ensure assay linearity in 384-well plates.
(§2) Compound 1 was dissolved in dimethyl sulfoxide (DMSO) to prepare a 10 mM stock solution. A serial titration was performed to produce a working concentration range of […] to 10 mM. Aliquots to produce final concentrations of 1.5 nM to 10 μM were spotted via an acoustic dispenser (EDC ATS-100) into an empty 384-well plate. Compound 1 was spotted in a 10-point serial dilution fashion (3-fold dilution) in duplicate within the plate. The DMSO concentration was kept constant for a final assay concentration of 0.1% DMSO. Plates were replicated for use with different cell lines and testing periods. After compound plate replication, all plates were sealed (Agilent ThermoLoc) and stored at −20° C. for up to 1 month. […] When ready for testing, plates were removed from the freezer, thawed, and unsealed just prior to the addition of the test cells. Prior to testing, cells were grown and expanded in culture flasks to provide sufficient amounts of starting material. Cells were then diluted to the appropriate densities and added directly to the compound-spotted 384-well plates. Cells were allowed to grow for 96 hours at 37° C./5% CO2. At the time when compound was added (t0), initial cell number was assessed via a viability assay (Cell Titer-Glo) by quantifying the level of luminescence generated by ATP present in viable cells. After 96 hours, cell viability of compound-treated cells was assessed via Cell Titer-Glo and luminescence measurement. Cell lines were assayed for growth inhibition by Compound 1 in at least 3 independent tests. A control cell line (the lung tumor cell line, A549) was included in each of the assays. The compound response against this control cell line was monitored closely to enable comparison of the data generated through the assay period. All data were normalized and presented as a percentage of the DMSO-treated cells. Results were then expressed as a GI50 value. The GI50 value corrects for the cell count at time zero. In addition, the IC50 value of Compound 1 for each cell line was calculated.

[2] = tested on: KASUMI-1; assay: Growth inhibition assay for NHL lines; details: KASUMI-1, Leukemia M-AML, 96 hours, n ≧ 3
Procedure: as §1, §2

[3] = tested on: Pfeiffer; assay: Growth inhibition assay for NHL lines; details: NHL DLBCL, 96 hours, n ≧ 3
Procedure: as §1, §2

[4] = tested on: RIVA; assay: Growth inhibition assay for NHL lines; details: NHL DLBCL, 96 hours, n ≧ 3
Procedure: as §1, §2

[5] = tested on: SU-DHL-16; assay: Growth inhibition assay for NHL lines; details: SU-DHL-16, NHL DLBCL, 96 hours, n ≧ 3
Procedure: as §1, §2

[6] = tested on: SU-DHL-5; assay: Growth inhibition assay for NHL lines; details: SU-DHL-5, NHL DLBCL, 96 hours, n ≧ 3
Procedure: as §1, §2

[7] = tested on: Farage; assay: Apoptosis assay for NHL lines (Caspase 3/7-Glo); details: NHL DLBCL, 24 hours, n = 1
Procedure: (§3) Apoptosis Assay for NHL Lines. Prior to testing, cells were grown and expanded in culture flasks to provide sufficient amounts of starting material. Cells were then diluted to their desired densities and added directly to compound-spotted 384-well plates. Cells were allowed to grow for 24 hours in 5% CO2 at 37° C. The apoptotic response was assessed by quantifying the activities of caspase 3 and caspase 7 (Caspase 3/7-Glo) in treated cells and control cells at the 24-hour time point. All data was normalized and represented as a value relative to the DMSO-treated cells. Results were then expressed as CalX, which is the minimum compound concentration required to double the levels of caspase 3/7 relative to those of the DMSO-treated cells during their treatment period.

[8] = tested on: HL-60; assay: Apoptosis assay for NHL lines (Caspase 3/7-Glo); details: HL-60, Leukemia M-AML, 24 hours, n = 1
Procedure: as §3

[9] = tested on: HT; assay: Apoptosis assay for NHL lines (Caspase 3/7-Glo); details: NHL DLBCL, 24 hours, n = 1
Procedure: as §3

[10] = tested on: KARPAS-299; assay: Apoptosis assay for NHL lines (Caspase 3/7-Glo); details: KARPAS-299, ALCL T-cell, 24 hours, n = 1
Procedure: as §3

[11] = tested on: KASUMI-1; assay: Apoptosis assay for NHL lines (Caspase 3/7-Glo); details: KASUMI-1, Leukemia M-AML, 24 hours, n = 1
Procedure: as §3

[12] = tested on: MOLM-13; assay: Apoptosis assay for NHL lines (Caspase 3/7-Glo); details: MOLM-13, Leukemia M-AML, 24 hours, n = 1
Procedure: as §3

[13] = tested on: NU-DHL-1; assay: Apoptosis assay for NHL lines (Caspase 3/7-Glo); details: NU-DHL-1, NHL DLBCL, 24 hours, n = 1
Procedure: as §3

[14] = tested on: OCI-LY-10; assay: Apoptosis assay for NHL lines (Caspase 3/7-Glo); details: OCI-LY-10, NHL DLBCL, 24 hours, n = 1
Procedure: as §3

[15] = tested on: OCI-LY-7; assay: Apoptosis assay for NHL lines (Caspase 3/7-Glo); details: OCI-LY-7, NHL DLBCL, 24 hours, n = 1
Procedure: as §3

[16] = tested on: RC-K8; assay: Apoptosis assay for NHL lines (Caspase 3/7-Glo); details: RC-K8, NHL DLBCL, 24 hours, n = 1
Procedure: as §3

[17] = tested on: REC-1; assay: Apoptosis assay for NHL lines (Caspase 3/7-Glo); details: REC-1, NHL MCL, 24 hours, n = 1
Procedure: as §3

[18] = tested on: SU-DHL-1; assay: Apoptosis assay for NHL lines (Caspase 3/7-Glo); details: SU-DHL-1, ALCL T-cell, 24 hours, n = 1
Procedure: as §3

[19] = tested on: SU-DHL-5; assay: Apoptosis assay for NHL lines (Caspase 3/7-Glo); details: SU-DHL-5, NHL DLBCL, 24 hours, n = 1
Procedure: as §3

[20] = tested on: SU-DHL-8; assay: Apoptosis assay for NHL lines (Caspase 3/7-Glo); details: SU-DHL-8, NHL DLBCL, 24 hours, n = 1
Procedure: as §3

[21] = tested on: THP-1; assay: Apoptosis assay for NHL lines (Caspase 3/7-Glo); details: THP-1, Leukemia M-AML, 24 hours, n = 1
Procedure: as §3

[22] = tested on: Toledo; assay: Apoptosis assay for NHL lines (Caspase 3/7-Glo); details: NHL DLBCL, 24 hours, n = 1
Procedure: as §3

[23] = tested on: U-2932; assay: Apoptosis assay for NHL lines (Caspase 3/7-Glo); details: U-2932, NHL DLBCL, 24 hours, n = 1
Procedure: as §3

Q: For CO[C@H]1CC[C@H](N2C(=O)CNc3ncc(-c4ccc(C(C)(C)O)nc4)nc32)CC1 [Compound 1, 7-(6-(2-hydroxypropan-2-yl)pyridin-3-yl)-1-((1r,4r)-4-methoxycyclohexyl)-3,4-dihydropyrazino-[2,3-b]pyrazin-2(1H)-one], which GI50 [1] is on record?
A: 1770 ± 1610 nM

Q: And the IC50 [1]?
A: 3490 ± 2480 nM

Q: What about the GI50 [2] of the same compound?
A: 40 ± 20 nM

Q: What about the IC50 [2] of the same compound?
A: 120 ± 30 nM

Q: What about the GI50 [3] of the same compound?
A: 90 ± 40 nM

Q: And the IC50 [3]?
A: 190 ± 70 nM

Q: And the GI50 [4]?
A: 20 ± 10 nM

Q: And the IC50 [4]?
A: 100 ± 50 nM

Q: And the GI50 [5]?
A: 110 ± 20 nM

Q: What about the IC50 [5] of the same compound?
A: 110 ± 20 nM

Q: And the GI50 [6]?
A: 230 ± 130 nM

Q: And the IC50 [6]?
A: 260 ± 140 nM

Q: What about the “CalX (minimum concentration to double caspase 3/7)” value (“CalX” below) [7] of the same compound?
A: 0.47

Q: And the “CalX” value [8]?
A: 10

Q: What about the Apoptotic [9] of the same compound?
A: N/Y

Q: What about the “CalX” value [9] of the same compound?
A: 5.62

Q: And the Apoptotic [10]?
A: N/Y

Q: And the “CalX” value [10]?
A: 9.61

Q: And the Apoptotic [11]?
A: N/Y

Q: And the “CalX” value [11]?
A: 6.52

Q: What about the Apoptotic [12] of the same compound?
A: N/Y

Q: What about the “CalX” value [12] of the same compound?
A: 7.24

Q: What about the “CalX” value [13] of the same compound?
A: 0.41

Q: And the “CalX” value [14]?
A: 0.7

Q: What about the “CalX” value [15] of the same compound?
A: 0.07

Q: What about the Apoptotic [16] of the same compound?
A: N/Y

Q: And the “CalX” value [16]?
A: 6.51

Q: And the “CalX” value [17]?
A: 0.79

Q: What about the “CalX” value [18] of the same compound?
A: 10

Q: And the “CalX” value [19]?
A: 0.59

Q: What about the “CalX” value [20] of the same compound?
A: 0.07

Q: What about the Apoptotic [21] of the same compound?
A: N/Y

Q: And the “CalX” value [21]?
A: 7.57

Q: And the Apoptotic [22]?
A: N/Y

Q: And the “CalX” value [22]?
A: 3.48

Q: And the “CalX” value [23]?
A: 2.04
